# Source: patent US5393752A, “Methylpiperazinoazepine compounds, preparation and use thereof” (Therabel Research S.A./N.V., priority 1994, dated 1995)
# Read-outs that look alike come from different tables or passages of the source.
# Assays:
# [1] = target: T1, D2 dopaminergic receptors (Rattus norvegicus, UniProt P61169); assay: Affinity test, D2 dopaminergic receptors: (3H)-spiperone displacement in rat striatum membranes; parameters: species or system male Wistar rats; details: read-out: Inhibition, % (binding of 3H-spiperone)
# T1 construct: The striatum is dissected rapidly and homogenized; from tissue; host or cells: striatum of male Wistar rats, membrane preparation
# T1 sequence (P61169 whole entry): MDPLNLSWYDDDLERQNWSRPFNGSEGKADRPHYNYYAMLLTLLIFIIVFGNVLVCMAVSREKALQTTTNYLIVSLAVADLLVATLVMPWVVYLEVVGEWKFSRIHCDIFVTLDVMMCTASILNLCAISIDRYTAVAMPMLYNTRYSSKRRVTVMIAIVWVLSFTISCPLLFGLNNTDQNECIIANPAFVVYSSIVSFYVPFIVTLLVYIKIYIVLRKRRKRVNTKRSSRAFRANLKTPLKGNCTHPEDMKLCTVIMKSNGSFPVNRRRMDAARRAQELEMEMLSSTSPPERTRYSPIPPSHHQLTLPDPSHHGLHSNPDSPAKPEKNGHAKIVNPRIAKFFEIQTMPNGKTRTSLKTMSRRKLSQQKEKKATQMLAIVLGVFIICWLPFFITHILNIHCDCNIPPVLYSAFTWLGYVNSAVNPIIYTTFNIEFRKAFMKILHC
# Protocol: Characterization by (^3 H) spiperone displacement test.
# The brain of male Wistar rats (200-250 g) is removed. The striatum is dissected rapidly and homogenized into 20 ml iced buffer ([…], pH=7.4, 25° C.) by means of a Teflon homogenizer. The homogenate is centrifuged at 4° C. at 10000 G during 10 minutes, the concentrate is washed two times with iced buffer and recentrifuged. The final concentrate is suspended into iced buffer (50 nM/HCl, pH=7.4) containing […], […] EDTA. After rehomogenization, the suspension is adjusted to 1 mg proteine per ml.
# The binding of (^3 H)-spiperone is evaluated onto the following mixture: 200 μl membrane preparation (0.1-0.2 mg proteine), 100 μl (10^-6 M) test substance and […] buffer for a final volume of 1 ml. Control tubes, which are taken as a reference of the nonspecific binding, contain also 1 μM (+) butaclamol. The samples (in threefold) are then incubated with 0.5 nM (^3 H)spiperone at 25° C. for 60 minutes. This step is stopped by a quick vacuum filtration of the suspension through a glass-fiber filter GF/C. The filter is rinsed three times with 5 ml iced buffer.
# muscarinergic receptors = system: muscarinergic receptors; parameters: species or system CFY rat; details: 1.5 nM (3H) QNB, 25° C., pH 7.5, 60 minutes; non-specific binding with 10^-5 M atropin
# [2] = Apomorphine Antagonism Test (in vivo), with locomotion and sedative effect; details: examples: "At 20 mg/kg" heads the paragraph
# Description: The following results are provided by way of example.
# [3] = Catalepsy Test (extrapyramidal effects); assay type: in vivo; details: for dose at which catalepsy appears: catalepsy for doses above / cataleptic effect starting from; for cataleptic effect (in words): catalepsy test
# Description: See in particular GRAY W. D., OSTERBERG A. C., RAUH C. E., Arch. Int. Pharmacodyn. 134, 198, 1961 and COSTALL B., OLLEY J. E., Neuropharmacology 10, 297, 1971.
# This test is representative for the extrapyramidal effects present in numerous neuroleptics (unwanted secondary effect). The compounds of the invention cause very little catalepsy and seem therefore to be free from this unwanted secondary effect. However, some products have shown a slight catalepsy: […]
# [4] = test substance 100 μl (10^-6 M) in final volume 1 ml, 0.5 nM (3H)spiperone, 25° C., 60 min, vs 1 μM (+)butaclamol
# [5] = scale from clozapine (20 mg/g) + to haloperidol (0.63 mg/kg) +++++
Compound,"inhibition [1, 4] [%]","Inhibition, % (binding of 3H QNB) (muscarinergic receptors) [%]","Apomorphine antagonism, intensity of activity [2, 5]",other results
"CN1CCN(C2=Nc3cccnc3N(C=O)c3ccccc32)CC1 [Example 17, 11-formyl-6-(4-methylpiperazin-1-yl)-11H-pyrido(2,3-b)benzo-1,4-diazepine]",22.8,43.38,,
"O=C(CCCN1CCC(O)(c2ccc(Cl)cc2)CC1)c1ccc(F)cc1 [Haloperidol, reference compound]",,,,"Apomorphine antagonism, intensity of activity ([2]; scale from clozapine + to haloperidol (0.63 mg/kg) +++++): +++++"
"CN1CCN(C2=Nc3cccnc3Sc3ccc(Cl)cc32)CC1.O=C(O)/C=C/C(=O)O [Example 3, 8-chloro-6-(4-methylpiperazin-1-yl)pyrido(2,3-b)benzo-1,4-thiazepine fumarate]",,,,dose at which catalepsy appears [3]: above 40 mg/kg
"Cc1ccc2c(c1)C(N1CCN(C)CC1)=Nc1cccnc1N2 [Example 11, 6-(4-methylpiperazin-1-yl)-8-methyl-11H-pyrido(2,3-b)benzo-1,4-diazepine]",24.8,67.3,,
"CN1CCN(C2=Nc3cccnc3Nc3ccc(F)cc32)CC1 [Example 13, 8-fluoro-6-(4-methylpiperazin-1-yl)-11H-pyrido(2,3-b)benzo-1,4-diazepine]",,,+,
"CN1CCN(C2=Nc3ccccc3Oc3ncccc32)CC1.O=C(O)/C=C\C(=O)O [Example 4, 5-(4-methylpiperazin-1-yl)pyrido(2,3-b)benzo-1,5-oxazepine maleate]",,,,dose at which catalepsy appears [3]: ≥ 20 mg/kg; cataleptic effect (in words) [3]: slight cataleptic effect
"CN1CCN(C2=Nc3cc(Cl)ccc3Oc3ncccc32)CC1.O=C(O)/C=C/C(=O)O [Example 5, 8-chloro-5-(4-methylpiperazin-1-yl)pyrido(2,3-b)benzo-1,5-oxazepine fumarate]",,,+,
CN1CCN(C2=Nc3ccccc3[Se]c3ccccc32)CC1 [Example 19],,78.31,,inhibition [1]: 26.7%
"CN1CCN(C2=Nc3cccnc3Nc3ccc(Cl)cc32)CC1 [Example 10, 8-chloro-6-(4-methylpiperazin-1-yl)-11H-pyrido(2,3-b)benzo-1,4-diazepine]",31.5,62.08,,
"CN1CCN(C2=Nc3cnccc3Sc3ccccc32)CC1 [Example 18, 10-(4-methylpiperazin-1-yl)pyrido(4,3-b)benzo-1,4-thiazepine]",50.2,57.61,,
"CN1CCN(C2=Nc3ccccc3Nc3ccncc32)CC1 [Example 1, 11-(4-methylpiperazin-1-yl)-5H-pyrido(4,3-b)benzo-1,5-diazepine]",,4.48,,dose at which catalepsy appears [3]: above 40 mg/kg; inhibition [1]: 56.2%
"CN1CCN(C2=Nc3ccccc3Sc3ccc(Cl)cc32)CC1 [Clothiapine, reference compound]",94.6,38.05,,
"CN1CCN(C2=Nc3cccnc3Oc3ccccc32)CC1.O=C(O)/C=C/C(=O)O [Example 7, 6-(4-methylpiperazin-1-yl)pyrido(2,3-b)benzo-1,4-oxazepine fumarate]",,,+,
"CN1CCN(C2=Nc3cccnc3Nc3cc(Cl)ccc32)CC1 [Example 12, 9-chloro-6-(4-methylpiperazin-1-yl)-11H-pyrido(2,3-b)benzo-1,4-diazepine]",,,+,
"CN1CCN(C2=Nc3cc(Cl)ccc3Nc3ccccc32)CC1 [Clozapine, reference compound]",,,+,dose at which catalepsy appears [3]: ≥ 20 mg/kg; cataleptic effect (in words) [3]: week cataleptic effect
